Data taken from patent US5608091A, “Quinizarin compound, method for production thereof, and use therefor” (Nippon Shokubai Co., Ltd., priority 1993, dated 1997).

How the values were obtained:
Format in all cases: physicochemical
[1] = Visible absorption spectrum (λmax, ε); conditions: for ε: in M-1 cm-1 (unit assumed)
Color tone of the dye = conditions: Tables 1-9
[2] = Solubility in toluene and methyl ethyl ketone, three-point scale
Source text: In these tables, the solubility is rated on the three-point scale, wherein Δ stands for a solubility of less than 1% by weight, .largecircle. for a solubility in the approximate range of 1 to 3% by weight, and .circleincircle. for a solubility of not less than 3% by weight.

| SMILES | λ max ([1]; in chloroform) | ε ([1]; in chloroform, at λ max) | Color tone (Color tone of the dye) | ε ([1]; in ethyl cellosolve) | λ max ([1]; in methanol) | ε ([1]; in methanol) | λ max ([1]; in toluene) | ε ([1]; in toluene) | Solubility ([2]; in toluene) | Solubility in methyl ethyl ketone [2] | Solubility in toluene ([2]; in toluene) |
| --- | --- | --- | --- | --- | --- | --- | --- | --- | --- | --- | --- |
| N#Cc1c(F)c(F)c(Sc2c(F)c3c(c(F)c2Sc2c(F)c(F)c(C#N)c(F)c2F)C(=O)c2c(O)ccc(O)c2C3=O)c(F)c1F [(300)] | 521 nm | 13200 | Cinnabar |  |  |  |  |  |  | Δ (a solubility of less than 1% by weight) | Δ (a solubility of less than 1% by weight) |
| CC(C)c1cccc(C(C)C)c1Nc1c(F)c2c(c(Nc3c(C(C)C)cccc3C(C)C)c1Nc1c(C(C)C)cccc1C(C)C)C(=O)c1c(O)ccc(O)c1C2=O [Dye (245), 5,6,7-tris(2,6-diisopropylanilino)-8-fluoroquinizarin] |  |  |  | 29200 |  |  |  |  |  |  |  |
| O=C1c2c(O)ccc(O)c2C(=O)c2c(F)c(NC3CCCCC3)c(F)c(F)c21 [(119)] | 536 nm | 24500 | Magenta |  |  |  |  |  |  | .largecircle. (a solubility in the approximate range of 1 to 3% by weight) | .largecircle. (a solubility in the approximate range of 1 to 3% by weight) |
| CCCCCCCCOc1c(F)c2c(c(F)c1Nc1cccc(C(=O)OCC)c1)C(=O)c1c(O)ccc(O)c1C2=O [(34)] | 531 nm | 12400 | Magenta |  |  |  |  |  |  | .circleincircle. (a solubility of not less than 3% by weight) | .circleincircle. (a solubility of not less than 3% by weight) |
| CCCCCCCCOC(=O)c1cccc(Nc2c(F)c(F)c3c(c2F)C(=O)c2c(O)ccc(O)c2C3=O)c1 [(8)] | 526 nm | 17600 | Magenta |  |  |  |  |  |  | .largecircle. (a solubility in the approximate range of 1 to 3% by weight) | .largecircle. (a solubility in the approximate range of 1 to 3% by weight) |
| CCCCCCSc1c(F)c2c(c(F)c1SCCCCCC)C(=O)c1c(O)ccc(O)c1C2=O [(303)] | 506 nm | 11300 | Orange |  |  |  |  |  |  | .largecircle. (a solubility in the approximate range of 1 to 3% by weight) | .largecircle. (a solubility in the approximate range of 1 to 3% by weight) |
| O=C1c2c(O)ccc(O)c2C(=O)c2c(F)c(SC3CCCCC3)c(SC3CCCCC3)c(F)c21 [(306)] | 508 nm | 14000 | Orange |  |  |  |  |  |  | .largecircle. (a solubility in the approximate range of 1 to 3% by weight) | .circleincircle. (a solubility of not less than 3% by weight) |
| CCCCNc1c(F)c2c(c(NCCCC)c1NCCCC)C(=O)c1c(O)ccc(O)c1C2=O [(248)] | 614 nm | 14900 | Blue |  |  |  |  |  |  | .largecircle. (a solubility in the approximate range of 1 to 3% by weight) | .largecircle. (a solubility in the approximate range of 1 to 3% by weight) |
| O=C(O)c1c(F)c(F)c(Sc2c(F)c3c(c(F)c2Sc2c(F)c(F)c(C(=O)O)c(F)c2F)C(=O)c2c(O)ccc(O)c2C3=O)c(F)c1F [(299)] | 510 nm | 12600 | Cinnabar |  |  |  |  |  |  | Δ (a solubility of less than 1% by weight) | Δ (a solubility of less than 1% by weight) |
| CCCCOC(=O)c1ccccc1Nc1c(F)c2c(c(F)c1Nc1ccccc1C(=O)OCCCC)C(=O)c1c(O)ccc(O)c1C2=O [(122)] | 614 nm | 14700 | Blue |  |  |  |  |  |  | .largecircle. (a solubility in the approximate range of 1 to 3% by weight) | .largecircle. (a solubility in the approximate range of 1 to 3% by weight) |
| CCCCNc1c(F)c2c(c(F)c1Nc1cccc(C(=O)OCC)c1)C(=O)c1c(O)ccc(O)c1C2=O [(227)] | 661 nm | 21000 | Cyan |  |  |  |  |  |  | .largecircle. (a solubility in the approximate range of 1 to 3% by weight) | .largecircle. (a solubility in the approximate range of 1 to 3% by weight) |
| CC(C)c1cccc(C(C)C)c1Nc1ccc2c(c1)C(=O)c1c(O)ccc(O)c1C2=O [(99)] |  |  |  |  |  |  | 560 nm | 14850 | Not less than 3 % by weight |  |  |

Now from value to molecule, other results behind:

| λ max ([1]; in chloroform) | ε ([1]; in chloroform, at λ max) | Color tone (Color tone of the dye) | ε ([1]; in ethyl cellosolve) | λ max ([1]; in methanol) | ε ([1]; in methanol) | λ max ([1]; in toluene) | ε ([1]; in toluene) | Solubility ([2]; in toluene) | SMILES | Solubility in methyl ethyl ketone [2] | Solubility in toluene ([2]; in toluene) |
| --- | --- | --- | --- | --- | --- | --- | --- | --- | --- | --- | --- |
| 489 nm | 12700 | Orange |  |  |  |  |  |  | O=C1c2c(O)ccc(O)c2C(=O)c2c(F)c(Sc3ccccc3)c(Sc3ccccc3)c(F)c21 [(298)] | .largecircle. (a solubility in the approximate range of 1 to 3% by weight) | .circleincircle. (a solubility of not less than 3% by weight) |
| 506 nm | 15300 | Orange |  |  |  |  |  |  | CC(C)(C)Sc1c(F)c2c(c(F)c1SC(C)(C)C)C(=O)c1c(O)ccc(O)c1C2=O [(305)] | .circleincircle. (a solubility of not less than 3% by weight) | .circleincircle. (a solubility of not less than 3% by weight) |
| 660 nm | 26700 | Cyan |  |  |  |  |  |  | CC(C)(C)c1ccc(Nc2c(F)c3c(c(F)c2Nc2ccc(C(C)(C)C)cc2)C(=O)c2c(O)ccc(O)c2C3=O)cc1 [(130)] | .largecircle. (a solubility in the approximate range of 1 to 3% by weight) | .largecircle. (a solubility in the approximate range of 1 to 3% by weight) |
| 528 nm | 14200 | Magenta |  |  |  |  |  |  | CCc1cccc(CC)c1Nc1c(F)c(F)c2c(c1F)C(=O)c1c(O)ccc(O)c1C2=O [(18)] | .largecircle. (a solubility in the approximate range of 1 to 3% by weight) | .circleincircle. (a solubility of not less than 3% by weight) |
| 540 nm | 17000 |  |  |  |  |  |  |  | CCOC(=O)c1cccc(Nc2c(F)c3c(c(F)c2Sc2ccccc2)C(=O)c2c(O)ccc(O)c2C3=O)c1 [(115)] |  |  |
| 495 nm | 12600 | Brown |  |  |  |  |  |  | O=C1c2c(O)ccc(O)c2C(=O)c2c(Sc3ccccc3)c(Sc3ccccc3)c(Sc3ccccc3)c(Sc3ccccc3)c21 [(307)] | .largecircle. (a solubility in the approximate range of 1 to 3% by weight) | .largecircle. (a solubility in the approximate range of 1 to 3% by weight) |
| 540 nm | 11900 | Magenta |  |  |  |  |  |  | CC(C)(C)c1ccc(Nc2c(F)c(F)c3c(c2F)C(=O)c2c(O)ccc(O)c2C3=O)cc1 [(13)] | .largecircle. (a solubility in the approximate range of 1 to 3% by weight) | .largecircle. (a solubility in the approximate range of 1 to 3% by weight) |
| 504 nm | 15100 | Cinnabar |  |  |  |  |  |  | COc1ccc(Sc2c(F)c3c(c(F)c2Sc2ccc(OC)cc2)C(=O)c2c(O)ccc(O)c2C3=O)cc1 [(302)] | .largecircle. (a solubility in the approximate range of 1 to 3% by weight) | .largecircle. (a solubility in the approximate range of 1 to 3% by weight) |
| 630 nm | 22300 | Blue |  |  |  |  |  |  | O=C1c2c(O)ccc(O)c2C(=O)c2c(F)c(Nc3c(Cl)cccc3Cl)c(Nc3c(Cl)cccc3Cl)c(F)c21 [(138)] | .largecircle. (a solubility in the approximate range of 1 to 3% by weight) | .largecircle. (a solubility in the approximate range of 1 to 3% by weight) |
| 542 nm | 12300 | Purple |  |  |  |  |  |  | Nc1c(Sc2ccccc2)c(Sc2ccccc2)c(F)c2c1C(=O)c1c(O)ccc(O)c1C2=O [(296)] | .largecircle. (a solubility in the approximate range of 1 to 3% by weight) | .largecircle. (a solubility in the approximate range of 1 to 3% by weight) |
| 605 nm | 16600 | Blue |  |  |  |  |  |  | N#Cc1ccc(Nc2c(F)c3c(c(F)c2Nc2ccc(C#N)cc2)C(=O)c2c(O)ccc(O)c2C3=O)cc1 [(126)] | Δ (a solubility of less than 1% by weight) | Δ (a solubility of less than 1% by weight) |
| 530 nm | 12800 | Magenta |  |  |  |  |  |  | CC(C)c1cccc(C(C)C)c1Nc1c(F)c(F)c2c(c1F)C(=O)c1c(O)ccc(O)c1C2=O [(25)] | .largecircle. (a solubility in the approximate range of 1 to 3% by weight) | .circleincircle. (a solubility of not less than 3% by weight) |
|  |  |  |  | 521.5 nm | 10600 |  |  |  | O=C1c2c(O)ccc(O)c2C(=O)c2c(F)c(Nc3ccc(S(=O)(=O)O)cc3)c(F)c(F)c21 [(27)] |  |  |
| 644 nm | 20100 | Cyan |  |  |  |  |  |  | CCOC(=O)c1cccc(Nc2c(F)c3c(c(F)c2Nc2cccc(C(=O)OCC)c2)C(=O)c2c(O)ccc(O)c2C3=O)c1 [(121)] | .largecircle. (a solubility in the approximate range of 1 to 3% by weight) | .largecircle. (a solubility in the approximate range of 1 to 3% by weight) |
| 649 nm | 13400 | Cyan |  |  |  |  |  |  | COc1ccc(Nc2c(F)c3c(c(F)c2Nc2ccc(OC)cc2)C(=O)c2c(O)ccc(O)c2C3=O)cc1 [(132)] | .largecircle. (a solubility in the approximate range of 1 to 3% by weight) | .largecircle. (a solubility in the approximate range of 1 to 3% by weight) |
| 521.0 nm | 17900 |  |  |  |  |  |  |  | O=C1c2c(O)ccc(O)c2C(=O)c2c(F)c(Oc3ccccc3)c(Nc3c(Cl)cccc3Cl)c(F)c21 [(110)] |  |  |
